Source: patent US11358957B2, “Microbiocidal oxadiazole derivatives” (SYNGENTA PARTICIPATIONS AG, priority 2017, dated 2022)

Legend:
[1] = system: Puccinia recondita f. Sp. Tritici; assay: Fungicidal activity against Puccinia recondita f. sp. tritici / wheat / leaf disc curative (brown rust); assay type: in vivo; conditions: foliar, 24 h, 200 ppm in the applied formulation, wheat leaf segments cv. Kanzler, curative (applied 1 day after inoculation), compared to untreated, read-out: disease control
Procedure, shortened: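 Wheat leaf segments (cv. Kanzler) on agar were inoculated with brown rust spores, kept dark at 19 °C and 75% RH, then sprayed 1 day later with compound (DMSO stock diluted in 0.025% Tween20). Under 12 h light/12 h dark at 19 °C, percent disease control versus untreated was scored 6–8 days after application; 200 ppm applied.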

[2] = system: Glomerella lagenarium (Colletotrichum lagenarium); assay: Fungicidal activity against Glomerella lagenarium (Colletotrichum lagenarium) liquid culture / cucumber / preventative (anthracnose); assay type: cell-based; conditions: Colletotrichum orbiculare; 20 ppm in the applied formulation; liquid culture (PDB), inhibition of growth measured photometrically 3 to 4 days after application; compared to untreated; read-out: disease control
Procedure, shortened: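 Conidia from cryogenic storage mixed into potato dextrose broth and added to compound in DMSO in microtiter plates. Incubated at 24° C.; growth inhibition read photometrically 3 to 4 days after application. Disease control expressed relative to untreated control, with compound at 20 ppm in the applied formulation.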

[3] = system: Phakopsora pachyrhizi; assay: Fungicidal activity against Phakopsora pachyrhizi / soybean / leaf disc preventative (Asian soybean rust); assay type: in vivo; conditions: foliar, 200 ppm in the applied formulation, soybean leaf disks, compared to untreated, read-out: disease control
Method: Leaf disks or leaf segments of various plant species are cut from plants grown in a greenhouse. The cut leaf disks or segments are placed in multiwell plates (24-well format) onto water agar. The leaf disks are sprayed with a test solution before (preventative) or after (curative) inoculation. Compounds to be tested are prepared as DMSO solutions (max. 10 mg/mL) which are diluted to the appropriate concentration with 0.025% Tween20 just before spraying. The inoculated leaf disks or segments are incubated under defined conditions (temperature, relative humidity, light, etc.) according to the respective test system. A single evaluation of disease level is carried out 3 to 14 days after inoculation, depending on the pathosystem. Percent disease control relative to the untreated check leaf disks or segments is then calculated. Soybean leaf disks are placed on water agar in multiwell plates (24-well format) and sprayed with the formulated test compound diluted in water. One day after application leaf discs are inoculated by spraying a spore suspension on the lower leaf surface. After an incubation period in a climate cabinet of 24-36 hours in darkness at 20° C. and 75% rh leaf disc are kept at 20° C. with 12 h light/day and 75% rh. The activity of a compound is assessed as percent disease control compared to untreated when an appropriate level of disease damage appears in untreated check leaf disks (12 to 14 days after application). The following compounds at 200 ppm in the applied formulation give at least 80% disease control in this test when compared to untreated control leaf disks under the same conditions, which show extensive disease development.

[4] = system: Puccinia recondita f. Sp. Tritici; assay: Fungicidal activity against Puccinia recondita f. sp. tritici / wheat / leaf disc preventative (brown rust); assay type: in vivo; conditions: foliar, 200 ppm in the applied formulation, wheat leaf segments cv. Kanzler, preventative (inoculated 1 day after application), compared to untreated, read-out: disease control
Procedure, shortened: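 Segments of wheat cv. Kanzler on water agar were sprayed with compound and inoculated with spores 1 day later. They were kept at 19 °C, 75% rh and 12 h light/12 h dark. Percent disease control versus untreated was scored 7–9 days after application; compounds were tested at 200 ppm.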

COC(=O)c1ncn(Cc2ccc(-c3noc(C(F)(F)F)n3)s2)n1 [Compound 1.6, methyl 1-[[5-[5-(trifluoromethyl)-1,2,4-oxadiazol-3-yl]-2-thienyl]methyl]-1,2,4-triazole-3-carboxylate]
≥ 80%: pest or weed control at 200 ppm [1] | inhibition of growth at 20 ppm [2] | pest or weed control at 200 ppm [3] | pest or weed control at 200 ppm [4]

CCOC(=O)c1ncnn1Cc1ccc(-c2noc(C(F)(F)F)n2)s1 [Compound 1.41, ethyl 2-[[5-[5-(trifluoromethyl)-1,2,4-oxadiazol-3-yl]-2-thienyl]methyl]-1,2,4-triazole-3-carboxylate]
≥ 80%: pest or weed control at 200 ppm [1] | inhibition of growth at 20 ppm [2] | pest or weed control at 200 ppm [3] | pest or weed control at 200 ppm [4]

Cc1cccc(=O)n1C(C)c1ccc(-c2noc(C(F)(F)F)n2)s1 (stereo not shown) [Compound 1.33, 6-methyl-1-[1-[5-[5-(trifluoromethyl)-1,2,4-oxadiazol-3-yl]-2-thienyl]ethyl]pyridin-2-one]
≥ 80%: pest or weed control at 200 ppm [1] | inhibition of growth at 20 ppm [2] | pest or weed control at 200 ppm [3] | pest or weed control at 200 ppm [4]

CC(c1ccc(-c2noc(C(F)(F)F)n2)s1)N1CCCCC1=O (stereo not shown) [Compound 1.34, 1-[1-[5-[5-(trifluoromethyl)-1,2,4-oxadiazol-3-yl]-2-thienyl]ethyl]piperidin-2-one]
≥ 80%: pest or weed control at 200 ppm [1] | inhibition of growth at 20 ppm [2] | pest or weed control at 200 ppm [3] | pest or weed control at 200 ppm [4]

FC(F)(F)c1nc(-c2ccc(Cn3cnc4ccccc43)s2)no1 [Compound 1.25, 3-[5-(benzimidazol-1-ylmethyl)-2-thienyl]-5-(trifluoromethyl)-1,2,4-oxadiazole]
≥ 80%: pest or weed control at 200 ppm [1] | inhibition of growth at 20 ppm [2] | pest or weed control at 200 ppm [3] | pest or weed control at 200 ppm [4]

COc1ccc2ncn(Cc3ccc(-c4noc(C(F)(F)F)n4)s3)c2c1 [Compound 1.23, 3-[5-[(6-methoxybenzimidazol-1-yl)methyl]-2-thienyl]-5-(trifluoromethyl)-1,2,4-oxadiazole]
≥ 80%: pest or weed control at 200 ppm [1] | inhibition of growth at 20 ppm [2] | pest or weed control at 200 ppm [3] | pest or weed control at 200 ppm [4]

CN(C)C(=O)c1ncnn1Cc1ccc(-c2noc(C(F)(F)F)n2)s1 [Compound 1.50, N,N-dimethyl-2-[[5-[5-(trifluoromethyl)-1,2,4-oxadiazol-3-yl]-2-thienyl]methyl]-1,2,4-triazole-3-carboxamide]
≥ 80%: pest or weed control at 200 ppm [1] | inhibition of growth at 20 ppm [2] | pest or weed control at 200 ppm [3] | pest or weed control at 200 ppm [4]

COC(=O)c1ccn(Cc2ccc(-c3noc(C(F)(F)F)n3)s2)n1 [Compound 1.53, methyl 1-[[5-[5-(trifluoromethyl)-1,2,4-oxadiazol-3-yl]-2-thienyl]methyl]pyrazole-3-carboxylate]
≥ 80%: pest or weed control at 200 ppm [1] | inhibition of growth at 20 ppm [2] | pest or weed control at 200 ppm [3] | pest or weed control at 200 ppm [4]

COC(=O)c1ccnn1Cc1ccc(-c2noc(C(F)(F)F)n2)s1 [Compound 1.54, methyl 2-[[5-[5-(trifluoromethyl)-1,2,4-oxadiazol-3-yl]-2-thienyl]methyl]pyrazole-3-carboxylate]
≥ 80%: pest or weed control at 200 ppm [1] | inhibition of growth at 20 ppm [2] | pest or weed control at 200 ppm [3] | pest or weed control at 200 ppm [4]

FC(F)(F)c1nc(-c2ccc(Cn3ccnc3)s2)no1 [Compound 1.17, 3-[5-(imidazol-1-ylmethyl)-2-thienyl]-5-(trifluoromethyl)-1,2,4-oxadiazole]
≥ 80%: pest or weed control at 200 ppm [1] | inhibition of growth at 20 ppm [2] | pest or weed control at 200 ppm [3] | pest or weed control at 200 ppm [4]

CCCOC(=O)c1ccnn1Cc1ccc(-c2noc(C(F)(F)F)n2)s1 [Compound 1.47, propyl 2-[[5-[5-(trifluoromethyl)-1,2,4-oxadiazol-3-yl]-2-thienyl]methyl]pyrazole-3-carboxylate]
≥ 80%: pest or weed control at 200 ppm [1] | inhibition of growth at 20 ppm [2] | pest or weed control at 200 ppm [3] | pest or weed control at 200 ppm [4]

CCOC(=O)c1ccnn1Cc1ccc(-c2noc(C(F)(F)F)n2)s1 [Compound 1.45, ethyl 2-[[5-[5-(trifluoromethyl)-1,2,4-oxadiazol-3-yl]-2-thienyl]methyl]pyrazole-3-carboxylate]
≥ 80%: pest or weed control at 200 ppm [1] | inhibition of growth at 20 ppm [2] | pest or weed control at 200 ppm [3] | pest or weed control at 200 ppm [4]

CN(C)C(=O)c1ccnn1Cc1ccc(-c2noc(C(F)(F)F)n2)s1 [Compound 1.58, N,N-dimethyl-2-[[5-[5-(trifluoromethyl)-1,2,4-oxadiazol-3-yl]-2-thienyl]methyl]pyrazole-3-carboxamide]
≥ 80%: pest or weed control at 200 ppm [1] | pest or weed control at 200 ppm [3] | pest or weed control at 200 ppm [4]

CCOC(=O)c1cnn(Cc2ccc(-c3noc(C(F)(F)F)n3)s2)c1 [Compound 1.1, ethyl 1-[[5-[5-(trifluoromethyl)-1,2,4-oxadiazol-3-yl]-2-thienyl]methyl]pyrazole-4-carboxylate]
≥ 80%: pest or weed control at 200 ppm [1] | inhibition of growth at 20 ppm [2] | pest or weed control at 200 ppm [3] | pest or weed control at 200 ppm [4]

CN(C)c1ncnn1Cc1ccc(-c2noc(C(F)(F)F)n2)s1 [Compound 1.13, N,N-dimethyl-2-[[5-[5-(trifluoromethyl)-1,2,4-oxadiazol-3-yl]-2-thienyl]methyl]-1,2,4-triazol-3-amine]
≥ 80%: pest or weed control at 200 ppm [1] | inhibition of growth at 20 ppm [2] | pest or weed control at 200 ppm [3] | pest or weed control at 200 ppm [4]

COc1ccc2c(c1)ncn2Cc1ccc(-c2noc(C(F)(F)F)n2)s1 [Compound 1.24, 3-[5-[(5-methoxybenzimidazol-1-yl)methyl]-2-thienyl]-5-(trifluoromethyl)-1,2,4-oxadiazole]
≥ 80%: pest or weed control at 200 ppm [1] | inhibition of growth at 20 ppm [2] | pest or weed control at 200 ppm [3] | pest or weed control at 200 ppm [4]

Cc1cc(C)n(Cc2ccc(-c3noc(C(F)(F)F)n3)s2)n1 [Compound 1.21, 3-[5-[(3,5-dimethylpyrazol-1-yl)methyl]-2-thienyl]-5-(trifluoromethyl)-1,2,4-oxadiazole]
≥ 80%: pest or weed control at 200 ppm [1] | inhibition of growth at 20 ppm [2] | pest or weed control at 200 ppm [3] | pest or weed control at 200 ppm [4]

CCN(C)C(=O)c1ccnn1Cc1ccc(-c2noc(C(F)(F)F)n2)s1 [Compound 1.169, N-ethyl-N-methyl-2-[[5-[5-(trifluoromethyl)-1,2,4-oxadiazol-3-yl]-2-thienyl]methyl]pyrazole-3-carboxamide]
≥ 80%: pest or weed control at 200 ppm [1] | inhibition of growth at 20 ppm [2] | pest or weed control at 200 ppm [4]

CCN(CC)C(=O)c1ccn(Cc2ccc(-c3noc(C(F)(F)F)n3)s2)n1 [Compound 1.128, N,N-diethyl-1-[[5-[5-(trifluoromethyl)-1,2,4-oxadiazol-3-yl]-2-thienyl]methyl]pyrazole-3-carboxamide]
≥ 80%: pest or weed control at 200 ppm [1] | inhibition of growth at 20 ppm [2] | pest or weed control at 200 ppm [4]

CON(C)C(=O)c1cnn(C(C)c2ccc(-c3noc(C(F)(F)F)n3)s2)c1 (stereo not shown) [Compound 1.68, N-methoxy-N-methyl-1-[1-[5-[5-(trifluoromethyl)-1,2,4-oxadiazol-3-yl]-2-thienyl]ethyl]pyrazole-4-carboxamide]
≥ 80%: pest or weed control at 200 ppm [1] | inhibition of growth at 20 ppm [2] | pest or weed control at 200 ppm [4]
